From patent US20250091994A1, “RAS/RAF BINDING INHIBITOR COMPOUND” (NATIONAL UNIVERSITY CORPORATION KOBE UNIVERSITY, priority 2021, published 2025)
Where two headings read alike, the source gives them in different places.

What was measured:
[1] = biological target: GTPγS-bound human HRasG12V / human c-Raf-1 Ras binding domain (RBD) (Homo sapiens (Human), UniProt P01112, G12V); assay: Ras-Raf binding inhibition ELISA
Procedure: The in vitro Ras-Raf binding inhibitory activity of the compound of the present invention was evaluated by an ELISA method (Enzyme-Linked ImmunoSorbent Assay) described below.
Ras and Raf used upon the evaluation were purified and activated by the following method.
Using a pGEX6P-1 vector (GE Healthcare), human HRasG12V (full length, 1-189 amino acid residues) and human c-Raf-1 Ras binding domain (RBD) (50-131 amino acid residues) were each allowed to express as a fusion body with glutathione S-transferase (GST) in E. coli.
GST-HRasG12V-expressing cells were subjected to ultrasonication in a buffer {50 mM Tris-HCl pH 7.4, 150 mM NaCl, 5 mM MgCl2, 1 mM ethylenediaminetetraacetic acid (EDTA), 1 mM dithiothreitol (DTT), 10% glycerol, and 1% Triton-X100}, and were then centrifuged at 100,000×g for 30 minutes, so as to collect the supernatant as a Ras protein fraction. HRasG12V in the supernatant was immobilized on a glutathione-agarose resin, and GST was then cleaved with PreScission Protease (GE Healthcare) for purification. The obtained HRasG12V was mixed with guanosine 5′-O-[gamma-thio]triphosphate trisodium salt (GTPTS) of 1000 times higher concentration at 30° C. for 1 hour, and thereafter, 20 mM MgCl2 (final concentration) was added to stop the reaction and collect the GTPgS-loaded HRasG12V as a product.
On the other hand, GST-c-Raf-1 RBD-expressing cells were subjected to ultrasonication in the same buffer as described above, and were then centrifuged at 100,000×g for 30 minutes, so as to collected the supernatant as a GST-c-Raf-1 RBD protein fraction.
The in vitro Ras-Raf binding inhibitory activity of the compound of the present invention was evaluated by an ELISA method described below.
GST-c-Raf-1 RBD diluted with a Ras-Raf binding buffer (50 mM Tris-HCl pH7.4, 150 mM NaCl, 5 mM MgCl2, 1 mM EDTA, and 1% Triton-X100) was added to each well of a glutathione-coated 96-well plate (Thermo Fisher Scientific.), and was incubated at 30° C. for 1 hour, to immobilize Raf on the well. The unbound free Raf was eliminated by washing the well with the Ras-Raf binding buffer three times. Subsequently, GTPTS-bound HRasG12V diluted with the Ras-Raf binding buffer and each compound solution (final DMSO concentration: 10%) were applied to each well, and the resulting mixture was then incubated at 30° C. for 1 hour, so that Ras and Raf were allowed to bind to each other. Thereafter, the plate was washed with the Ras-Raf binding buffer twice, and was then subjected to a blocking treatment at room temperature for 20 minutes, using TBS-Tween {10 mM Tris-HCl pH 7.4, 150 mM NaCl, and 0.05% (w/v) Tween-20}-5% (w/v) bovine serum albumin (BSA). After that, an anti-HRas antibody (C-20, Santa Cruz) or an anti-HRas antibody (259, Santa Cruz), which had been 1000 times diluted with TBS-Tween-5% BSA, was added to the reaction mixture, and incubated at room temperature for 1 hours. After the treatment with the primary antibody, the plate was washed with TBS-Tween-5% BSA three times, and a horseradish peroxidase-labeled secondary antibody against rabbit immunoglobulin G (GE Healthcare) of 1000 times diluted with TBS-Tween-5% BSA, was added to the plate, followed by incubation at room temperature for 1 hour. After the treatment with the secondary antibody, the plate was washed with TBS-Tween-5% BSA three times, and a substrate solution (TMB) was then added to the plate, followed by incubation at room temperature for 15 minutes for coloration. Finally, 2 M H2SO4 was added to stop color development (coloration reaction kit: Nacalai Tesque). The absorbance at 450 nm (OD450) was measured, so that the color intensity was quantified. Inhibition by the test compound was determined according to the following equation: […]
IC50 (*) in which the anti-HRas antibody (259, Santa Cruz) was used

[2] = test system: promyelocytic leukemia cells HL60 (N-RasQ61L); assay: Cell growth inhibition, suspension cells HL60; assay type: cell-based; details: Homo sapiens, HL-60, 72 hours; for inhibition at 3.3 µM: read-out: HL-60 (NRasQ61L) % inhibition at 3.3 μM (**); for inhibition at 1.1 µM: read-out: HL-60 (NRasQ61L) % inhibition at 1.1 μM (*)
Procedure: (§1) The cell growth inhibitory activity of the compound of the present invention on human culture cells having active-type mutation in Ras was evaluated by the below-mentioned method using suspension cancer cells {acute lymphoblastic leukemia cells CCRF-CEM (K-RasG12D), promyelocytic leukemia cells HL60 (N-RasQ61L), acute lymphoblastic leukemia cells MOLT4 (N-RasG12C), and small cell lung cancer cells SHP77 (K-RasG12V)} and adherent cancer cells {large bowel cancer cells SW480 (K-RasG12V) and large bowel cancer cell SW620 (K-RasG12V)}.
(Case of suspension cells) The cells suspended in a medium containing 0.5% (v/v) fetal bovine serum (FBS) and each compound solution (final DMSO concentration: 1%) were seeded on a 96-well plate (2 to 4×10^4 cells/well), and the resulting mixture was then cultured at 37° C. in the presence of 5% CO2 for 72 hours.
(§2) Thereafter, the number of viable cells was measured using Cell Counting Reagent (Nacalai Tesque) in accordance with the manufacturer's instructions. Inhibition by the test compound was determined according to the following equation: […]

[3] = test system: large bowel cancer cell SW620 (K-RasG12V); assay: Cell growth inhibition, adherent cells SW620; assay type: cell-based; details: Homo sapiens, SW-620, 72 hours; for inhibition at 3.2 µM: read-out: SW620 (KRasG12V) % inhibition at 3.2 μM (***); for inhibition at 1 µM: read-out: SW620 (KRasG12V) % inhibition at 1 μM
Procedure: as §1
(Case of adherent cells) The cells suspended in a medium containing 10% FBS (1 to 2×10^4 cells/well) were seeded on a 96-well plate, and were then cultured at 37° C. in the presence of […]. Thereafter, the medium was exchanged with a medium containing […], to which each compound solution (final DMSO concentration: […]) had been added, and the cells were then cultured at 37° C. in the presence of […] for 72 hours.
as §2

[4] = anti-HRas antibody C-20, read-out: ELISA IC50 (μM): 1st Ab_C-20
[5] = anti-HRas antibody 259 (*), read-out: ELISA IC50 (μM): 1st Ab_259 (*)

Chain of GTPγS-bound human HRasG12V / human c-Raf-1 Ras binding domain (RBD) (P01112 whole entry G12V, the tested form may be a part): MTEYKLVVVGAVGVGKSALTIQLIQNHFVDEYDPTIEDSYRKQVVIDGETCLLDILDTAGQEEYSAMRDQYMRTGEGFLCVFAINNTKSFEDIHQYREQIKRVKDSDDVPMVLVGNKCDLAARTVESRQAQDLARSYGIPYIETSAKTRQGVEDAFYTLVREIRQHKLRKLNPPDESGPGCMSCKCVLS

| SMILES | inhibition at 1 µM [1] | IC50 [1, 4] | inhibition at 3.2 µM [3] | inhibition at 3.3 µM [2] | inhibition at 1 µM [3] | other results |
| --- | --- | --- | --- | --- | --- | --- |
| CC(=O)N1C(=Cc2cc(-c3ccc4c(c3)CCNC4=O)c3cc(C(=O)N4CCOCC4)ccc3n2)C(=O)c2ccccc21 (racemic) [Example 147, 6-(2-((1-acetyl-3-oxoindolin-2-ylidene)methyl)-6-(morpholine-4-carbonyl)quinolin-4-yl)-3,4-dihydro-isoquinolin-1(2H)-one] | 66.1% | 0.5 µM | 92.2% |  |  | inhibition at 3.2 µM ([2]; 3.2 μM (****), read-out: HL-60 (NRasQ61L) % inhibition at 3.2 μM (****)): 59.1% |
| CC(=O)N1/C(=C\c2cc(-c3cccc(-c4ccccc4)c3)c3cc(C(=O)N4CCOCC4)ccc3n2)C(=O)c2ccccc21 [Example 88, (Z)-2-((4-([1,1′-biphenyl]-3-yl)-6-(morpholine-4-carbonyl)quinolin-2-yl)methylene)-1-acetylindolin-3-one] |  | 0.98 µM |  | 89% | 46% |  |
| CC(=O)N1/C(=C\c2cc(-c3ccccc3-c3ccccc3)c3cc(C(=O)N4CCOCC4)ccc3n2)C(=O)c2ccccc21 [Example 89, (Z)-2-((4-([1,1′-biphenyl]-2-yl)-6-(morpholine-4-carbonyl)quinolin-2-yl)methylene)-1-acetylindolin-3-one] |  | 0.5 µM |  |  | 71% | inhibition at 1.1 µM [2]: 95% |
| CC(=O)N1/C(=C\c2cc(-c3cccc4cccnc34)c3cc(C(=O)N4CCOCC4)ccc3n2)C(=O)c2ccccc21 [Example 91, (Z)-1-acetyl-2-((6-(morpholine-4-carbonyl)-[4,8′-biquinolin]-2-yl)-methylene)indolin-3-one] |  | 0.87 µM |  | 97% | 70% |  |
| CC(=O)N1C(=Cc2cc(-c3cccnc3-c3ccccc3)c3cc(C(=O)N4CCOCC4)ccc3n2)C(=O)c2ccccc21 [Example 94, 1-acetyl-2-((6-(morpholine-4-carbonyl)-4-(2-phenylpyridin-3-yl)quinolin-2-yl)-methylene)indolin-3-one] |  |  |  | 96% | 82% |  |
| CC(=O)N1/C(=C\c2cc(-c3ccccc3-c3ccccc3)c3cc(C(=O)N4CCN(C5COC5)CC4)ccc3n2)C(=O)c2ccccc21 [Example 95, (Z)-2-((4-([1,1′-biphenyl]-2-yl)-6-(4-(oxetan-3-yl)-piperazine-1-carbonyl)quinolin-2-yl)methylene)-1-acetylindolin-3-one] |  | 0.44 µM |  |  | 70% | inhibition at 1.1 µM [2]: 88% |
| CC(=O)N1/C(=C\c2nc3ccc(C(=O)N4CC(C)OC(C)C4)cc3s2)C(=O)c2ccccc21 (stereo not drawn) [Example 100, (Z)-1-acetyl-2-((6-(2,6-dimethyl-morpholine-4-carbonyl)benzo [d]thiazol-2-yl)-methylene)indolin-3-one] |  |  |  |  |  | IC50 [1, 5]: 0.77 µM; inhibition at 10 µM ([2]; 10 μM (***), read-out: HL-60 (NRasQ61L) % inhibition at 10 μM (***)): 87% |
| CC(=O)N1/C(=C/c2cc(-c3ccnc4ccccc34)c3cc(C(=O)N4CCOCC4)ccc3n2)C(=O)c2ccccc21 [Example 117, (E)-1-acetyl-2-((6-(morpholine-4-carbonyl)-[4,4′-biquinolin]-2-yl)-methylene)indolin-3-one] |  |  |  | 94% | 66% |  |
| CC(=O)N1/C(=C\c2cc(-c3ccccc3-c3ccccc3)c3cc(C(=O)O)ccc3n2)C(=O)c2ccccc21 [Example 128, (Z)-4-([1,1′-biphenyl]-2-yl)-2-((1-acetyl-3-oxo-indolin-2-ylidene)-methyl)quinoline-6-carboxylic acid] |  | 0.49 µM |  | 96% | 70% |  |
| CC(=O)N1/C(=C\c2ccc3cc(CNC4CCN(C5COC5)CC4)ccc3n2)C(=O)c2ccccc21 [Example 138, (Z)-1-acetyl-2-((6-(((1-(oxetan-3-yl)piperidin-4-yl)amino)meth-yl)quinolin-2-yl)-methylene)indolin-3-one] |  |  |  | 65% |  | IC50 [1, 5]: 0.88 µM |
| CC(=O)N1/C(=C\c2cc(-c3cn[nH]c3)c3cc(C(=O)N4CCOCC4)ccc3n2)C(=O)c2ccccc21 [Example 170, (Z)-1-acetyl-2-((6-(morpholine-4-carbonyl)-4-(1H-pyrazol-4-yl)quinolin-2-yl)-methylene)indolin-3-one] | 66.8% | 0.5 µM | 41.6% |  |  |  |
| CC(=O)N1/C(=C\c2cc(-c3cnn(C)c3)c3cc(C(=O)N4CCOCC4)ccc3n2)C(=O)c2ccccc21 [Example 171, (Z)-1-acetyl-2-((4-(1-methyl-1H-pyrazol-4-yl)-6-(morpholine-4-carbonyl)quinolin-2-yl)methylene)-indolin-3-one] | 72% | 0.4 µM | 79.5% |  |  |  |
| CC(=O)N1/C(=C\c2cc(-c3ncn(C)n3)c3cc(C(=O)N4CCOCC4)ccc3n2)C(=O)c2ccccc21 [Example 188, (Z)-1-acetyl-2-((4-(1-methyl-1H-1,2,4-triazol-3-yl)-6-(morpholine-4-carbonyl)quinolin-2-yl)methylene)-indolin-3-one] | 53.7% | 0.9 µM | 79.3% |  |  |  |
| CC(=O)N1/C(=C\c2cc(-c3cnn(C)c3)c3cc(CNC4CCOCC4)ccc3n2)C(=O)c2ccccc21 [Example 205, (Z)-1-acetyl-2-((4-(1-methyl-1H-pyrazol-4-yl)-6-(((tetrahydro-2H-pyran-4-yl)amino)-methyl)quinolin-2-yl)methylene)-indolin-3-one] | 66.3% | 0.7 µM | 37% |  |  |  |
